# Values of other authors as cited in patent US20220241055A1, “DENTAL IMPLANT WITH ANTIBACTERIAL/ ANTIMICROBIAL PROPERTY HAVING METAL-ORGANIC FRAMEWORK (MOF) STRUCTURE AND PRODUCTION METHOD THEREOF” (RECEP TAYYIP ERDOGAN UNIVERSITESI, priority 2019, published 2022).
# Details: conditions similar to body medium (SBF, 37° C.), stored in metal-organic framework structures
smiles,measurement,value
CC(C)Cc1ccc(C(C)C(=O)O)cc1 (stereo not shown) [ibuprofen],duration of release of the stored drug,6 days
